Measurements taken from patent US10047059B2, “Substituted quinoxalines for inhibiting kinase activity” (NEUPHARMA, INC., priority 2012, dated 2018).

How the values were obtained:
BRAF V600E = target: T1, BRAF V600E (Homo sapiens, UniProt P15056, V600E); assay: Z'-LYTE kinase inhibition assay against BRAF V600E; format: biochemical; details: Z'-LYTE method
T1 construct: purchased Invitrogen
Description: (§1) Inhibitory activities Inhibitory activities of compounds against BRAF, and BRAF V600E were measured by Invitrogen using Z′-LYTE® Method as briefly described in the following. 4× Test compounds are dissolved in 1% DMSO. […] ATP solutions are diluted to a 4×ATP working concentration in Kinase Buffer (50 mM HEPES pH 7.5, 0.01% BRIJ-35, 10 mM MgCl2, 1 mM EGTA). Reaction started by 30-second shaking of mixture consisting of 2.5 μL 4× test compound, […] and 2.5 μL 4×ATP Solution on Bar-coded Corning, low volume NBS, black 384-well plate (Corning Cat. #3676). Then the mixture was incubated for 60-minute at room temperature for the kinase reaction, followed by addition of 5 μL of a 1:1024 dilution of development reagent A and 30-second plate shake. The mixture was then incubated for another 60-minute at room temperature for development reaction. Fluorescence was read by plate reader. IC50 was calculated by plotting the concentration of compound vs the percentage of inhibition in treated wells using GraphPad Prism 5.
(§2) Table 2 and 3 show % inhibition at 1 μM of several compounds of the invention against BRAF and BRAF V600E, respectively, using Z′-LYTE® method.
The scale utilized in Table 4 is as follows: +++ less than 100 nM; and ++ greater than 100 nM.

KDR (VEGFR2) = target: T2, KDR (VEGFR2) (Homo sapiens, UniProt P35968); assay: Z'-LYTE kinase inhibition assay against KDR; format: biochemical; details: Z'-LYTE method
T2 construct: purchased Invitrogen
T2 sequence (P35968 20-1356): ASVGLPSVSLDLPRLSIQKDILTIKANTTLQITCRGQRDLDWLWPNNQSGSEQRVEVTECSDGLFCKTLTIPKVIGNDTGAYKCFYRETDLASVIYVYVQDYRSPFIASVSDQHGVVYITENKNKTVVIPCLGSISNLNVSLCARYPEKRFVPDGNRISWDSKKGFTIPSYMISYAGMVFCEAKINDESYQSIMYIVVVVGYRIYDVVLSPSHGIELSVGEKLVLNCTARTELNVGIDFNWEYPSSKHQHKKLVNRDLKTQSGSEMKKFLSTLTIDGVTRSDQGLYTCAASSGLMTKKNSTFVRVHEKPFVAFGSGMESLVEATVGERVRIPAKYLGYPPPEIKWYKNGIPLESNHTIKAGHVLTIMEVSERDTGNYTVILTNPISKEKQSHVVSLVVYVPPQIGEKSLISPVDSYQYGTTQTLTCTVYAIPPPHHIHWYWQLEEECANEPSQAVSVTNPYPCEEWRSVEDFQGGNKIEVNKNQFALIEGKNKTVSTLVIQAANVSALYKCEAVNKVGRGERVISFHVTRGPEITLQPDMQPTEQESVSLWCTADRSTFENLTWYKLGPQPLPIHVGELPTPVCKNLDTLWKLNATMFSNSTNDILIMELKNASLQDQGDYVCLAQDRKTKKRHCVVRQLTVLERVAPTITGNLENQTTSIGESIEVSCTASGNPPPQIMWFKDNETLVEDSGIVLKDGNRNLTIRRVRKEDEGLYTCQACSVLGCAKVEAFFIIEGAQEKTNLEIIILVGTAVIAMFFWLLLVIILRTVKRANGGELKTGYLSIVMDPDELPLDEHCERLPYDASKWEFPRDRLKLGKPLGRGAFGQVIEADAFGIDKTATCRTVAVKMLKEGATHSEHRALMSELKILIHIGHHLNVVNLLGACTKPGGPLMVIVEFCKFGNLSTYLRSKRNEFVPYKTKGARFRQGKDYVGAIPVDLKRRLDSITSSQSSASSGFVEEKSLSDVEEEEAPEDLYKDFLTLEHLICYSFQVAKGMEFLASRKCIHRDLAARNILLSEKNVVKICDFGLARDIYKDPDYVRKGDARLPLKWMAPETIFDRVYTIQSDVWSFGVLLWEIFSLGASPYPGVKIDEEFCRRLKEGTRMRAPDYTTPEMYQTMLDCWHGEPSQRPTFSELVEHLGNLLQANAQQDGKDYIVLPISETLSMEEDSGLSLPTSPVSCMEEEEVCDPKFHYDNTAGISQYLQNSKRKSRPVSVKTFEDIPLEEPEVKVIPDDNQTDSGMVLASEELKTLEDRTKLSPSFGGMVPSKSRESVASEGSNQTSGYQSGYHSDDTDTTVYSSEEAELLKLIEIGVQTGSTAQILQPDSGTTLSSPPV
Description: Inhibitory activities of compounds against KDR (VEGFR2) were also measured by Invitrogen using Z′-LYTE® Method as described above with the following modification. The 2×KDR (VEGFR2)/Tyr 01 mixture is prepared in 50 mM HEPES pH 7.5, 0.01% BRIJ-35, 10 mM MgCl2, 1 mM EGTA. The final 10 μL Kinase Reaction consists of 0.5-11.7 ng KDR (VEGFR2) and 2 μM Tyr 01 in 50 mM HEPES pH 7.5, 0.01% BRIJ-35, 10 mM MgCl2, 1 mM EGTA. After the 1 hour Kinase Reaction incubation, 5 μL of a 1:256 dilution of Development Reagent B is added.
The scale utilized in Table 6 is as follows: +++ less than 100 nM; and ++ greater than 100 nM

BRAF = target: T3, BRAF (Homo sapiens, UniProt P15056); assay: Z'-LYTE kinase inhibition assay against BRAF; format: biochemical; details: Z'-LYTE method
T3 construct: purchased Invitrogen
T3 sequence (P15056 whole entry): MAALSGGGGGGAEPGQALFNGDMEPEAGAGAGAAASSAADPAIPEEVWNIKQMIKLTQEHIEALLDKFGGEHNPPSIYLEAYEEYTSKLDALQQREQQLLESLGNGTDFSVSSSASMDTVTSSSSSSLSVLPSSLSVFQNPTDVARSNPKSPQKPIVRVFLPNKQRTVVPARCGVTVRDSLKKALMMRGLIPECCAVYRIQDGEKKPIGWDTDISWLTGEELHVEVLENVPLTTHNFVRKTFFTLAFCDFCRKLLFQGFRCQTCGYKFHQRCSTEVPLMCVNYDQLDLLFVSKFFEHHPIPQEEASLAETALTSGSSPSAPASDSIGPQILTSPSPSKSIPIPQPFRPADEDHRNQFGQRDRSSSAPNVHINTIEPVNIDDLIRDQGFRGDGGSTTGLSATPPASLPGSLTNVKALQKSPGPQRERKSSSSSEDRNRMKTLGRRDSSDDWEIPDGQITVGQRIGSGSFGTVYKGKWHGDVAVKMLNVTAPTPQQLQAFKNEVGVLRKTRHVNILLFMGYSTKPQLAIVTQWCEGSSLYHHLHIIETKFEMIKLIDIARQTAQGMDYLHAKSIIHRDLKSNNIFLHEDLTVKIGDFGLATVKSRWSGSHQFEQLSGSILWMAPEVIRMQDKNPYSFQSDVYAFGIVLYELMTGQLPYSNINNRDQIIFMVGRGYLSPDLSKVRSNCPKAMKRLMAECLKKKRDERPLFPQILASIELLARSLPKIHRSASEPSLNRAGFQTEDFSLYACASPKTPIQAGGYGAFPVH
Description: as §1, §2

A549 cells = assay: Inhibition of cancer cell growth, MTT or MTS assay, A549; format: cell-based; details: Homo sapiens, 72 h incubation
Description: (§3) Inhibition of cell growth by compounds was measured using MTT or MTS assay. Tumor cell lines were purchased from ATCC (American Type Culture Collection, Manassas, Va.). All cell lines were maintained in RPMI 1640 (Hyclone) supplemented with 10% fetal bovine serum (FBS, Hyclone), glutamine (2 mM, Hyclone), and antibiotics (penicillin 100 U/mL and streptomycin 50 μg/mL) at 37° C. in a humidified atmosphere of 5% CO2 in air. Taxol (as a positive control, Sigma) and compounds were dissolved in DMSO (Sigma), and the final concentration of DMSO in the medium was 1%. Tumor cells were plated in 96-well plates at densities of about 2000 (A375) or 4000 (A549 and Colo205) cells/well of a 96-well plate and allowed to adhere/grow for 24 h. They were then treated with various concentrations of drug and incubated for 72 h. For MTT method, medium was then removed by inverting and tapping the plates. 100 μL of MTT (0.5 mg/ml) was added to each well followed by an incubated at 37° C. for 4 h. MTT was then removed and 200 μL of DMSO was added to each well, and the ODs at 570 nm were measured after a 5 second shaking cycle in a 96-well spectrophotometer. For MTS method, 20 μL MTS (CellTiter 96 Aqueous One Solution, Promega) was added to each well followed by an incubated at 37° C. for 2-4 h, solutions were then directly put in a 96-well spectrophotometer, and the ODs at 490 nm were measured.
(§4) All concentrations of compounds were tested in triplicate and controls were averaged over 4 wells. IC50 was calculated by plotting the concentration of compound vs the percentage of inhibition in treated wells using GraphPad Prism 5. […] The scale utilized in Tables 7-9 is as follows: +++ less than 1000 nM; ++ between 1000 nM and 5000 nM; and + greater than 5000 nM. The scale utilized in […]

A375 cells = assay: Inhibition of cancer cell growth, MTT or MTS assay, A375; format: cell-based; details: Homo sapiens, A-375, 72 h incubation
Description: as §3, §4

Colo205 cells = assay: Inhibition of cancer cell growth, MTT or MTS assay, Colo205; format: cell-based; details: Homo sapiens, COLO 205, 72 h incubation
Description: as §3, §4

T1 sequence (P15056 whole entry V600E): as the sequence (P15056 whole entry) above, with V600E counted along it

Structure (SMILES)	inhibition at 1 µM (BRAF V600E) [%]	inhibition at 1 µM (KDR (VEGFR2)) [%]	inhibition at 1 µM (BRAF) [%]	IC50 (A549 cells) [µM]	IC50 (A375 cells) [µM]	IC50 (Colo205 cells) [µM]	IC50 (KDR (VEGFR2)) [µM]	IC50 (BRAF V600E) [µM]
O=C(Nc1cccc(F)c1)Nc1ccc(C(=O)c2ccc3ncc(N4CCNCC4)nc3c2)c(F)c1 [Compound C20, 1-(3-fluoro-4-(3-(piperazin-1-yl)quinoxaline-6-carbonyl)phenyl)-3-(3-fluorophenyl)urea]	> 89	< 70	< 70	> 5	1 to 5	–	–	–
O=C(Nc1ccc(Cl)cc1)Nc1ccc(C(=O)c2ccc3ncc(N4CCNCC4)nc3c2)cc1 [Compound C09, 1-(4-chlorophenyl)-3-(4-(3-(piperazin-1-yl)quinoxaline-6-carbonyl)phenyl)urea]	> 89	< 70	70 to 89	1 to 5	1 to 5	1 to 5	–	–
O=C(Nc1ccc(C(=O)c2ccc3nccnc3c2)cc1)Nc1cccc(F)c1 [Compound C02, 1-(3-fluorophenyl)-3-(4-(quinoxaline-6-carbonyl)phenyl)urea]	< 70	< 70	< 70	1 to 5	1 to 5	–	–	–
O=C(Nc1ccc(C(=O)c2ccc3ncc(C4CCNCC4)nc3c2)cc1)Nc1ccc(F)c(C(F)(F)F)c1 [Compound C28, 1-(4-fluoro-3-(trifluoromethyl)phenyl)-3-(4-(3-(piperidin-4-yl)quinoxaline-6-carbonyl)phenyl)urea]	70 to 89	< 70	< 70	> 5	1 to 5	–	–	–
O=C(Nc1ccc(C(=O)c2ccc3ncc(N4CCNCC4)nc3c2)cc1)Nc1ccc(C(F)(F)F)cc1 [Compound C13, 1-(4-(3-(piperazin-1-yl)quinoxaline-6-carbonyl)phenyl)-3-(4-(trifluoromethyl)phenyl)urea]	> 89	< 70	< 70	1 to 5	< 1	–	–	–
O=C(Nc1ccc(C(=O)c2ccc3ncc(N4CCNCC4)nc3c2)cc1)Nc1cccc(Cl)c1 [Compound C11, 1-(3-chlorophenyl)-3-(4-(3-(piperazin-1-yl)quinoxaline-6-carbonyl)phenyl)urea]	> 89	70 to 89	70 to 89	1 to 5	1 to 5	< 1	> 0.1	–
O=C(Nc1ccc(C(=O)c2ccc3nccnc3c2)cc1)Nc1cccc(C(F)(F)F)c1 [Compound C01, 1-(4-(quinoxaline-6-carbonyl)phenyl)-3-(3-(trifluoromethyl)phenyl)urea]	> 89	< 70	< 70	> 5	1 to 5	> 5	–	–
O=C(Nc1ccc(F)cc1)Nc1ccc(C(=O)c2ccc3ncc(N4CCOCC4)nc3c2)cc1 [Compound C05, 1-(4-fluorophenyl)-3-(4-(3-morpholinoquinoxaline-6-carbonyl)phenyl)urea]	< 70	< 70	< 70	> 5	> 5	–	–	–
O=C(Nc1ccc(C(=O)c2ccc3ncc(N4CCOCC4)nc3c2)cc1)Nc1cccc(Cl)c1 [Compound C03, 1-(3-chlorophenyl)-3-(4-(3-morpholinoquinoxaline-6-carbonyl)phenyl)urea]	< 70	< 70	< 70	1 to 5	1 to 5	–	–	–
O=C(Nc1cccc(C(F)(F)F)c1)Nc1ccc(C(=O)c2ccc3ncc(N4CCOCC4)nc3c2)c(F)c1 [Compound C24, 1-(3-fluoro-4-(3-morpholinoquinoxaline-6-carbonyl)phenyl)-3-(3-(trifluoromethyl)phenyl)urea]	< 70	70 to 89	–	1 to 5	1 to 5	–	–	–
N#Cc1ccc(NC(=O)Nc2ccc(C(=O)c3ccc4ncc(N5CCOCC5)nc4c3)cc2)cc1C(F)(F)F [Compound C15, 1-(4-cyano-3-(trifluoromethyl)phenyl)-3-(4-(3-morpholinoquinoxaline-6-carbonyl)phenyl)urea]	< 70	70 to 89	–	1 to 5	1 to 5	–	–	–

Continued, values first:

inhibition at 1 µM (BRAF V600E) [%]	inhibition at 1 µM (KDR (VEGFR2)) [%]	inhibition at 1 µM (BRAF) [%]	IC50 (A549 cells) [µM]	IC50 (A375 cells) [µM]	IC50 (Colo205 cells) [µM]	IC50 (KDR (VEGFR2)) [µM]	IC50 (BRAF V600E) [µM]	Structure (SMILES)
> 89	< 70	< 70	1 to 5	1 to 5	–	–	–	O=C(Nc1ccc(C(=O)c2ccc3ncc(N4CCNCC4)nc3c2)cc1)Nc1cccc(F)c1 [Compound C19, 1-(3-fluorophenyl)-3-(4-(3-(piperazin-1-yl)quinoxaline-6-carbonyl)phenyl)urea]
> 89	< 70	< 70	1 to 5	1 to 5	–	–	–	O=C(Nc1ccc(F)cc1)Nc1ccc(C(=O)c2ccc3ncc(N4CCNCC4)nc3c2)cc1 [Compound C10, 1-(4-fluorophenyl)-3-(4-(3-(piperazin-1-yl)quinoxaline-6-carbonyl)phenyl)urea]
< 70	< 70	< 70	1 to 5	–	–	–	–	O=C(Nc1ccc(Cl)cc1)Nc1ccc(C(=O)c2ccc3ncc(N4CCOCC4)nc3c2)cc1 [Compound C04, 1-(4-chlorophenyl)-3-(4-(3-morpholinoquinoxaline-6-carbonyl)phenyl)urea]
70 to 89	70 to 89	< 70	< 1	< 1	1 to 5	> 0.1	–	O=C(Nc1ccc(C(=O)c2ccc3ncc(N4CCNCC4)nc3c2)cc1)Nc1ccc(Cl)c(C(F)(F)F)c1 [Compound C12, 1-(4-chloro-3-(trifluoromethyl)phenyl)-3-(4-(3-(piperazin-1-yl)quinoxaline-6-carbonyl)phenyl)urea]
> 89	70 to 89	< 70	< 1	< 1	1 to 5	< 0.1	< 0.1	O=C(Nc1ccc(C(=O)c2ccc3ncc(N4CCNCC4)nc3c2)cc1)Nc1cccc(C(F)(F)F)c1 [Compound C17, 1-(4-(3-(piperazin-1-yl)quinoxaline-6-carbonyl)phenyl)-3-(3-(trifluoromethyl)phenyl)urea]
> 89	> 89	< 70	< 1	< 1	–	< 0.1	–	N#Cc1ccc(CC(=O)Nc2ccc(C(=O)c3ccc4ncc(N5CCNCC5)nc4c3)c(F)c2)cc1C(F)(F)F [Compound C26, 2-(4-cyano-3-(trifluoromethyl)phenyl)-N-(3-fluoro-4-(3-(piperazin-1-yl)quinoxaline-6-carbonyl)phenyl)acetamide]
